Data reported in patent US20240307308A1, “PORPHYRIN NANOVESICLE WITH FATTY ACID CONJUGATE” (priority 2021, published 2024).
“Also recorded” adds a separate entry of the source.

Key:
[1] = doses of 1000 mg/kg; cited from earlier work
KB cells = test: Intracellular uptake by fluorescence microscopy; assay type: cell-based; details: 1 mM (1000 μM) free EDTA with 5 μM PS
Procedure: Fluorescence microscopy method was firstly used to track particles' intracellular uptake on KB cells that cultured in RPMI-1640 media with 10% FBS. Briefly, 5×10^4 cells/well were seeded in eight-well chamber slides 24 h prior to incubation. Cells were incubated with NPS and PS at porphyrin concentration of 1 μM for 4 h at 37° C., rinsed with PBS for 3 times and then re-culture in fresh media. Olympus FV1000 laser fluorescence scanning microscopy (Olympus, Tokyo, Japan) was conducted to monitor the porphyrin fluorescence change of the cells with time (immediately and at 3 h and 18 h after removing the incubation medium). The fluorescence microscopy method was also used to examine eNPS uptake in KB epithelium cells versus normal fibroblast cells (NFB)

pyropheophorbide-lipid [porphyrin-lipid]
Acute toxicity [1]: minimal acute toxicities

O=C(O)CN(CCN(CC(=O)O)CC(=O)O)CC(=O)O [free EDTA, Ethylenediaminetetraacetic acid]
Effect of co-incubated free EDTA on PS uptake (KB cells): negligible enhancement; also recorded: negligible effect
